Measurements from the kinase profiling compilation of Christmann-Franck et al. (2016).

Columns and labels:
Experiment in all cases: radiometric filter-binding kinase assay, Kinaseprofiler
[1] = biological target: DAPK2 (human) (UniProt Q9UIK4); conditions: ATP 10 µM
[2] = biological target: MAP3K5 (human) (UniProt Q99683); conditions: ATP 200 µM
[3] = biological target: PRKCI (human) (UniProt P41743); conditions: ATP 155 µM
[4] = biological target: STK33 (human) (UniProt Q9BYT3); conditions: ATP 155 µM
STK33 (human), sequence (Q9BYT3 whole entry, looked up): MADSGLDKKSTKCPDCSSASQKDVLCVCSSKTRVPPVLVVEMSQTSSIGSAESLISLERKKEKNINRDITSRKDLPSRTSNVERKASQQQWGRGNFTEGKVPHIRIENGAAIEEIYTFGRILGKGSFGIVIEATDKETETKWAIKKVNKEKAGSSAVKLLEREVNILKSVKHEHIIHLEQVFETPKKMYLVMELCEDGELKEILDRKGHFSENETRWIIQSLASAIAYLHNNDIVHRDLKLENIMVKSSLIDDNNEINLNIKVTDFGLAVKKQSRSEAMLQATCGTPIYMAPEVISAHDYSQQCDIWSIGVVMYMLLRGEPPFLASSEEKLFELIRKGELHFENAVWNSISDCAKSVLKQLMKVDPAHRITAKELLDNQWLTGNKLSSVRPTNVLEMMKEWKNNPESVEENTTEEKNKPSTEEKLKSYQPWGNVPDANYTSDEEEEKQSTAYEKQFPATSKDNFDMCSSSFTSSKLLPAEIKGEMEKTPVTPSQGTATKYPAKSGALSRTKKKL

PRKCI (human), sequence (P41743 whole entry, looked up): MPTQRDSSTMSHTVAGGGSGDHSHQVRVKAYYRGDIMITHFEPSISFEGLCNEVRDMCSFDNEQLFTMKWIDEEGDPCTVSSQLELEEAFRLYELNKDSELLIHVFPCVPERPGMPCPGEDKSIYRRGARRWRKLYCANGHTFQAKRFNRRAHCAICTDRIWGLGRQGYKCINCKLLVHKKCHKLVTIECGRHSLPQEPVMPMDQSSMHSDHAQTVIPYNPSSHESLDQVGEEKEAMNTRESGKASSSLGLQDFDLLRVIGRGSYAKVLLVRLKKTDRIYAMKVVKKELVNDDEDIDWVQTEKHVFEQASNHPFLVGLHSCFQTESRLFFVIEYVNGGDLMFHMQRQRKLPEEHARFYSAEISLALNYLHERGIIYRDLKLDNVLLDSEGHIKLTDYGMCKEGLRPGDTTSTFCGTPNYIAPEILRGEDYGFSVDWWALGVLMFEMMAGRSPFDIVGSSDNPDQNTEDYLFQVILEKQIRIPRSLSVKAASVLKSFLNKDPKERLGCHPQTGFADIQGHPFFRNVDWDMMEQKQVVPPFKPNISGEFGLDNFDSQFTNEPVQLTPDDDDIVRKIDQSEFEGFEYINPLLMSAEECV
DAPK2 (human), sequence (Q9UIK4 whole entry, looked up): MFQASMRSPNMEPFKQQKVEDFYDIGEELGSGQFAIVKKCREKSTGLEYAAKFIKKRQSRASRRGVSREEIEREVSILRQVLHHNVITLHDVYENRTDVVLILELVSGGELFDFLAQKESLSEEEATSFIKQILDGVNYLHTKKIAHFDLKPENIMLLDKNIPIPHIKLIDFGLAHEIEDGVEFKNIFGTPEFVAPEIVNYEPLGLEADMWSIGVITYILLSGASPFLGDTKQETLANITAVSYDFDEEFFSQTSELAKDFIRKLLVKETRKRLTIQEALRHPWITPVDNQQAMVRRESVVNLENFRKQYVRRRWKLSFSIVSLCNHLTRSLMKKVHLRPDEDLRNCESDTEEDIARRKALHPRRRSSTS
MAP3K5 (human), sequence (Q99683 whole entry, looked up): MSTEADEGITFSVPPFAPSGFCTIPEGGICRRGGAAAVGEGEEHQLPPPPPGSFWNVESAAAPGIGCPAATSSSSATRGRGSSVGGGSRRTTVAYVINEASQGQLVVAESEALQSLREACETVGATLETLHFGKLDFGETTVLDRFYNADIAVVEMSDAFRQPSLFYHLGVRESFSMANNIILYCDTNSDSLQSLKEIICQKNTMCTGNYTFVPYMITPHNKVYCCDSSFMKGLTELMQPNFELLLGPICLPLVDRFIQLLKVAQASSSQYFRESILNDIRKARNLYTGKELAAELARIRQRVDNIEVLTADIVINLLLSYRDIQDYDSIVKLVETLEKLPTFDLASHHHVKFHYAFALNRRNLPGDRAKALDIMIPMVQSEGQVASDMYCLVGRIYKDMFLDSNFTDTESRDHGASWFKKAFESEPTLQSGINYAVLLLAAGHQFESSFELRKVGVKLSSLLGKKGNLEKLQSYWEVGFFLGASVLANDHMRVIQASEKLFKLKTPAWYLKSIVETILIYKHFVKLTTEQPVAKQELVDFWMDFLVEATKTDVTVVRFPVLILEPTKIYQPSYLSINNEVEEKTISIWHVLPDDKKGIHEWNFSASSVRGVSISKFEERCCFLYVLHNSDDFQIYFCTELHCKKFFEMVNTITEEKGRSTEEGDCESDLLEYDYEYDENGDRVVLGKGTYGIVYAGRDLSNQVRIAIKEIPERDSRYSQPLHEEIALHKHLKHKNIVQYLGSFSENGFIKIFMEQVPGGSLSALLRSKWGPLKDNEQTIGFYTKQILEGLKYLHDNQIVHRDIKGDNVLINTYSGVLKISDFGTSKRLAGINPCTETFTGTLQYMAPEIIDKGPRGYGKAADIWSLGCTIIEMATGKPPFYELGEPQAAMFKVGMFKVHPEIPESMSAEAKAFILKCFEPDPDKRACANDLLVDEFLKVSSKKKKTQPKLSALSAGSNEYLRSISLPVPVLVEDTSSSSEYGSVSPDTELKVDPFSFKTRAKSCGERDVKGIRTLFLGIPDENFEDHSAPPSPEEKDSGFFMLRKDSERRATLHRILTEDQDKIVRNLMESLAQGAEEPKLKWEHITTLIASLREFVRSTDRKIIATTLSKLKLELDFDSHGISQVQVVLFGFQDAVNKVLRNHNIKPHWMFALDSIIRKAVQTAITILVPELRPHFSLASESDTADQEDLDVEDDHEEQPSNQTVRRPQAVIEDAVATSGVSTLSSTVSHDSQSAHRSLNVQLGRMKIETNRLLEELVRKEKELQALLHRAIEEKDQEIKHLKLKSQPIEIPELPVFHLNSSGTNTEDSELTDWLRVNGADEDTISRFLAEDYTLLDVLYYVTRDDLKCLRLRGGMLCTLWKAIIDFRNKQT

residual activity ([1]; compound 1.0 µM): 73%
residual activity ([1]; compound 10.0 µM): 23%
residual activity ([2]; compound 1.0 µM): 52%
residual activity ([2]; compound 10.0 µM): 7%
residual activity ([3]; compound 1.0 µM): 96%
residual activity ([3]; compound 10.0 µM): 105%
residual activity ([4]; compound 1.0 µM): 43%
residual activity ([4]; compound 10.0 µM): 8%
SMILES: O=C1Nc2ccccc2/C1=C1\Nc2ccccc2\C1=N/O
